Experimental findings from patent publication US11154564B2, “Composition for cough” (Aboca S.p.A. Società Agricola, priority 2017, dated 2021) are described below.

Series [1] in a line: Stability of the composition (total tannins as pyrogallol, EP 9.2, 2.8.14). Format: physicochemical. Particulars: fluid form (syrup), 40° C. and 75% of relative humidity, six months. As to the method: The stability of the composition of the invention in fluid form (syrup, as per examples above, at 2) with regard to tannins was assessed by measuring the content of total tannins, expressed as pyrogallol, by means of spectrophotometric method described in European Pharmacopoeia (EP 9.2, 2.8.14) for agrimony.

In series [2] the test system is human keratocytes. As to the kind of experiment: Scavenger-type anti-oxidizing activity assay (DCA probe, H2O2 oxidative stress). The class given is cell-based. Particulars: 0.05 mg/ml. An excerpt:
Assessment of anti-oxidizing activity of the sample on human cells exposed to chemical-type progressive oxidative stress. The assessment of anti-oxidizing action is obtained from quantification of free radical formation in cells exposed to the sample and to oxidative stress. The method applied is based on the use of the fluorimetric probe 2,7 dichlorofluorescein acetate-DCA-: this probe penetrates into cells, binds to cell membrane proteins and macromolecules. In this form, the probe is not fluorescent, only becoming fluorescent when oxidized by free radicals. Cells pretreated with DCA are exposed to the various dilutions of the sample and hydrogen peroxide. […] Starting from this mother solution, the first dilution was prepared at a concentration of 0.5 mg/ml in saline; therefrom, by applying a 1:2 dilution factor, the other four dilutions were obtained. Positive Control: cells exposed to the 500 μM H2O2 solution. Internal Control: cells exposed to an ascorbic acid solution (0.05 mg/ml). Negative Control: cells exposed to the inoculation medium. The assay was performed on a simple cell model consisting of a monolayer of stabilized human keratocytes (cells were purchased from IZSLER and are guaranteed as free from any viral/bacterial contamination and/or from mycoplasma). […] The same procedure was carried out to obtain the same five dilutions in a 500 μM H2O2 solution in saline. 150 μl per each dilution (in saline and in H2O2) were distributed into four wells on two different plates. Cultured cells were enzymatically detached from the growth medium and counted with an electronic cell counter (Scepter); a cell suspension was prepared (in inoculation medium) at the density of 300,000 cells/ml, which were then distributed into 96-well plates: 100 μl per well, obtaining a seeding density of 30,000 cells per well. Lastly, the plates were placed back to culture in an incubator at 37° C. and 5% CO2-enriched humid atmosphere for the subsequent 24 hours. The inoculation medium was removed, cells were washed once with PBS, then PBS was discarded and 150 μl DCA (4 μM) was distributed in both plates. Then, the plates were placed back in incubator at 37° C. and 5% CO2-enriched atmosphere for 15 minutes. At the end of the DCA incubation period, the solution was removed, and cells were washed once with PBS, then 150 μl of the above-described dilutions of the sample and of the controls were distributed in the plates. Then, free radical formation was measured from T0 (right after inoculation into the two plates) every 20 minutes, up to 100 minutes (5 measurements) with a fluorimeter. At the end of the measurements, after the 100 minutes, the inoculate of both plates was removed and Neutral Red Uptake vitality assay was performed. F.U.: fluorescence unit F.U. positive control: average of F.U. emitted from cells exposed to the H2O2 solution (maximum production of free radicals) F.U. negative control: average of F.U. emitted from cells not exposed to oxidative stress At each time interval of exposure ([NT]5) there were carried out: the average of F.U. emitted from cells exposed to the sample, to vitamin C without oxidative stress, is subtracted from the average of F.U. emitted from cells exposed to the sample, to vitamin C and oxidative stress. In other words, the average values of fluorescence emitted from the non-stressed plate were subtracted from the average values of fluorescence emitted from the stressed plate. […]: cells exposed to the sole sample F.U. Controlpos: cells exposed to the sole oxidative stress F.U. Controlneg: cells exposed to saline without oxidative stress

As for `O=C1O[C@H]([C@@H](O)CO)C(O)=C1O` [Vit. C, Ascorbic acid], the figures for the “stability in fluid form” value in series [1] (listed as Vitamin C) and in series [1] (listed as vitamin C) were “did not exhibit stability beyond T0” and “markedly unstable”, respectively. Besides, the “% PROTECTION FROM FREE RADICALS” value turned out to be 57% in series [2] (20 MIN, 500 μM H2O2); 60% in series [2] (40 MIN, 500 μM H2O2); 60% in series [2] (60 MIN, 500 μM H2O2); 63% in series [2] (80 MIN, 500 μM H2O2); 61% in series [2] (100 MIN, 500 μM H2O2); 45% in series [2] (T0, 500 μM H2O2). Moreover, the “FREE RADICAL DEVELOPMENT” value in series [2] (20 MIN, 500 μM H2O2) turned out to be 5993; in series [2] (40 MIN, 500 μM H2O2) it was 5721; in series [2] (60 MIN, 500 μM H2O2), 5240; in series [2] (80 MIN, 500 μM H2O2) it was 4802; in series [2] (100 MIN, 500 μM H2O2), 4937; in series [2] (T0, 500 μM H2O2), 5654.
